Experimental data taken from ChEMBL document CHEMBL4419175, “Compositions for treatment, diagnosis and prognosis of diseases” (2016).
Active and inactive are the calls of the source. No cut-off for these calls is given here.

Assays:
[1] = test system: LNCaP; assay: Inhibition of PIP5K1alpha protein expression in human LNCAP cells at 20 uM incubated for 48 hrs by immunoblot analysis; type: functional, cell-based
[2] = test system: PC-3; assay: Inhibition of PIP3 protein expression in human PC3 cells at 50 uM incubated for 48 hrs by immunoblot analysis; type: functional, cell-based
[3] = test system: PC-3; assay: Inhibition of PKAR1alpha protein expression in human PC3 cells at 20 uM incubated for 48 hrs by immunoblot analysis; type: functional, cell-based
[4] = test system: Caco-2; assay: Inhibition of cell proliferation in human Caco2 cells assessed as reduction in viable cell count at 10 to 100 uM incubated for 48 hrs; type: functional, cell-based
[5] = Toxicity in mouse xenografted with human PC3 cells assessed as induction of body weight loss at 40 mg/kg co-treated with 10 mg/kg docetaxel dosed every second day starting from day 0 and ending on day 20; type: organism-based; details: in vivo
[6] = test system: PC-3; assay: Induction of apoptosis in human PC3 cells assessed as viable cells at 50 uM incubated for 48 hrs by Annexin-/7-AAD staining based FACS analysis (reference value: 94.31%); type: functional; details: PC-3, 48 h, read-out: Activity
[7] = test system: CWR22R; assay: Antiproliferation activity against human 22Rv1 cells assessed as cell proliferation at 10 to 50 uM by MTS assay; type: functional, cell-based
[8] = test system: LNCaP; assay: Induction of apoptosis in human LNCAP cells assessed as formation of fragmented nucleus at 20 uM incubated for 48 hrs; type: functional, cell-based
[9] = test system: PC-3; assay: Induction of apoptosis in human PC3 cells assessed as necrotic cells at 50 uM incubated for 48 hrs by Annexin-/7-AAD staining based FACS analysis (reference value: 0.32%); type: functional
[10] = test system: LNCaP; assay: Reduction in SKP2 protein expression in human LNCAP cells at 20 uM incubated for 48 hrs by immunoblot analysis; type: functional, cell-based
[11] = test system: LNCaP; assay: Inhibition of AR protein expression in human LNCAP cells at 20 uM incubated for 48 hrs by immunoblot analysis; type: functional, cell-based
[12] = test system: PC-3; assay: Inhibition of PIP5K1alpha protein expression in human PC3 cells at 20 uM incubated for 48 hrs by immunoblot analysis; type: functional, cell-based
[13] = test system: LNCaP; assay: Reduction in CDK1 protein expression in human LNCAP cells at 20 uM incubated for 48 hrs by immunoblot analysis; type: functional, cell-based
[14] = test system: PC-3; assay: Inhibition of PIP5K1alpha protein expression in human PC3 cells assessed as AKT phosphorylation at Ser473 residues at 50 uM incubated for 48 hrs by immunoblot analysis relative to control; type: functional; set-up: scale not given: the % may be the effect or the level left
[15] = test system: PC-3; assay: Induction of morphological changes in human PC3 cells assessed as changes in morphology at 50 uM incubated for 48 hrs by live cell imaging system based assay; type: functional
[16] = target: T1, MAP/microtubule affinity-regulating kinase 4 (Homo sapiens) (UniProt Q96L34); assay: Binding affinity to human MARK4
T1 sequence (whole entry): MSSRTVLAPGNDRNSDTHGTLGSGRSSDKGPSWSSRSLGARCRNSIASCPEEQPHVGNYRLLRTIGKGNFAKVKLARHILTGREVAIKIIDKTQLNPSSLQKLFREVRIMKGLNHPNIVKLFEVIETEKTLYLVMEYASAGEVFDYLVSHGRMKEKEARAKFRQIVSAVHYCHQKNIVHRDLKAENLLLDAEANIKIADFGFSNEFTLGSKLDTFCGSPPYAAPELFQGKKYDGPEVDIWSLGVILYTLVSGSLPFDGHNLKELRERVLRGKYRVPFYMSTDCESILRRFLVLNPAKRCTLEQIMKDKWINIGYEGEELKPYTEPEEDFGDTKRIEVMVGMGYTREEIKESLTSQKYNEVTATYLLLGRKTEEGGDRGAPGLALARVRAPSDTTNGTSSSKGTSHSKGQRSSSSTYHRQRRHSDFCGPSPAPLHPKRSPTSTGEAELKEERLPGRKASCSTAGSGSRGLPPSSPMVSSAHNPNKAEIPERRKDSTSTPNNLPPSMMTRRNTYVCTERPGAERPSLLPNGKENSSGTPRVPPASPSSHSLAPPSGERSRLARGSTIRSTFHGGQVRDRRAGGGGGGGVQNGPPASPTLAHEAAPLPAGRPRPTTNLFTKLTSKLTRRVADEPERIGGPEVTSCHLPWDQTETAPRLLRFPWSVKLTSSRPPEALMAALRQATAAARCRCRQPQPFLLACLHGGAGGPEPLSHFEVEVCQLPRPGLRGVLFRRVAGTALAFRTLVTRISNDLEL

[17] = test system: PC-3; assay: Inhibition of PIP5K1alpha protein expression in human PC3 cells assessed as reduction in cyclin A2 expression at 50 uM incubated for 48 hrs by immunoblot analysis relative to control; type: functional, cell-based
[18] = test system: PC-3; assay: Antitumor activity against human PC3 cells xenografted in mouse assessed as reduction in volume at 40 mg/kg dosed every second day starting from day 0 and ending on day 20 relative to control; type: functional
[19] = test system: LNCaP; assay: Inhibition of PSA protein expression in human LNCAP cells at 20 uM incubated for 48 hrs by immunoblot analysis; type: functional, cell-based
[20] = test system: LNCaP; assay: Inhibition of cell proliferation in human LNCAP cells assessed as reduction in viable cell count at 10 to 100 uM incubated for 48 hrs; type: functional, cell-based
[21] = test system: LNCaP; assay: Induction of apoptosis in human LNCAP cells assessed as formation of apoptotic bodies at 20 uM incubated for 48 hrs; type: functional, cell-based
[22] = test system: PC-3; assay: Induction of apoptosis in human PC3 cells assessed as late apoptotic cells at 50 uM incubated for 48 hrs by Annexin-/7-AAD staining based FACS analysis (reference value: 2.83%); type: functional
[23] = test system: U-937; assay: Inhibition of cell proliferation in human U937 cells assessed as reduction in viable cell count at 10 to 100 uM incubated for 48 hrs; type: functional, cell-based
[24] = test system: PC-3; assay: Inhibition of PIP5K1alpha protein expression in human PC3 cells assessed as PIP5K1alpha/beta-actin ratio level at 20 uM incubated for 48 hrs by immunoblot analysis (reference value: 9.43); type: functional
[25] = test system: PC-3; assay: Induction of apoptosis in human PC3 cells assessed as early apoptotic cells at 50 uM incubated for 48 hrs by Annexin-/7-AAD staining based FACS analysis (reference value: 2.53%); type: functional
[26] = test system: PC-3; assay: Inhibition of PIP5K1alpha protein expression in human PC3 cells assessed as reduction in FAK phosphorylation incubated for 48 hrs by immunoblot analysis relative to control; type: functional, cell-based
[27] = test system: PC-3; assay: Inhibition of cell adhesion in human PC3 cells assessed as cell adhesion relative to control; type: functional; set-up: scale not given: the % may be the effect or the level left
[28] = test system: PC-3; assay: Inhibition of PIP5K1alpha protein expression in human PC3 cells assessed as reduction in cyclin D1 expression at 50 uM incubated for 48 hrs by immunoblot analysis relative to control; type: functional, cell-based
[29] = target: Serine/threonine-protein kinase MARK1 (Homo sapiens) (UniProt Q9P0L2); assay: Binding affinity to human MARK1
[30] = test system: LNCaP; assay: Inhibition of PIP5K1alpha protein expression in human LNCAP cells assessed as reduction in AKT phosphorylation at Ser473 residues at 20 uM incubated for 48 hrs by immunofluorescent analysis relative to control; type: functional, cell-based
[31] = test system: PC-3; assay: Induction of morphological changes in human PC3 cells assessed as reduction in cell size at 50 uM incubated for 48 hrs by live cell imaging system based assay; type: functional

Sequence of Serine/threonine-protein kinase MARK1 (Homo sapiens) (Q9P0L2 whole entry, looked up): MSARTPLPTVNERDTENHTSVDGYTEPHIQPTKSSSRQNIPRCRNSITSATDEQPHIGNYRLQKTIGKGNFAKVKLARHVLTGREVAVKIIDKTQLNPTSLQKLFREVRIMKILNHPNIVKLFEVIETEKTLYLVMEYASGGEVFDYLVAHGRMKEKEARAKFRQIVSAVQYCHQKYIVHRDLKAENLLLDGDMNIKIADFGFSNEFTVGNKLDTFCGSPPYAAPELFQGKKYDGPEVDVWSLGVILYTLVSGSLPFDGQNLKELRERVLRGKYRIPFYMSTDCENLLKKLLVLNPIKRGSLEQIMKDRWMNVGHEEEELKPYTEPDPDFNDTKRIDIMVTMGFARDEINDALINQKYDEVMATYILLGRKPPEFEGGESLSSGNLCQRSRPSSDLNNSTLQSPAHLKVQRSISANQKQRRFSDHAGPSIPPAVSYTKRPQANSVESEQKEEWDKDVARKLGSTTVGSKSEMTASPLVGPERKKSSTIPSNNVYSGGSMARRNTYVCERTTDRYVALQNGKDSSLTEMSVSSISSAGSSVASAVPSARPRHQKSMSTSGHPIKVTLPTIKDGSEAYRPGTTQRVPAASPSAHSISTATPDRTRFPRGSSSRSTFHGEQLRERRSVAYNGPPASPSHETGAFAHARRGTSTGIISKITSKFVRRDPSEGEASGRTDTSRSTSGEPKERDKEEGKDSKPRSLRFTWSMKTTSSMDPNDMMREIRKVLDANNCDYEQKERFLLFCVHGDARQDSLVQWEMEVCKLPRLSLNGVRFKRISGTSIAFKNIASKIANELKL

In the case of `CN1CC(=O)N2[C@H](c3c[nH]c4ccc(Cl)cc34)c3cc4c(cc3C[C@H]2C1=O)OCO4`, the inhibition [1] is reported as “Active”, the Activity [2] is reported as “Active” and the inhibition [3] is reported as “inactive”. The inhibition [4] was “Active”, the Activity [5] was “Non-Toxic” and the viability at 50 µM [6] was 80.2%. The Activity [7] was “Active”, the Activity [8] was “Active” and the Activity [9] was 0.8%. For the same compound, the Activity [10] was “Active”, the inhibition [11] was “Active” and the inhibition [12] was “Active”. The Activity [13] was “Active”, the Activity [14] was 29.77% and the Activity [15] was “Active”. For the same compound, the Activity [16] was “Active”, the inhibition [17] was “Active” and the Activity [18] was 458 mm3. For the same compound, the inhibition [19] was “Active”, the inhibition [20] was “Active” and the Activity [21] was “Active”. The Activity [22] was 9.42%, the inhibition [23] was “Active” and the Ratio [24] was 2.01. The Activity [25] was 9.55%, the inhibition [26] was “Dose-dependent effect” and the Activity [27] was 38.82%. The inhibition [28] was “Active”, the Activity [29] was “Active” and the inhibition [30] was “Active”. For the same compound, the Activity [31] was “Active”.
